From BindingDB's records for patent US11555039 (Translational Drug Development, 2023)

Target: Rho-associated protein kinase 2 (Homo sapiens, UniProt O75116)
Experiment: Kinase Inhibition

Rho-associated protein kinase 2, sequence (O75116 whole entry): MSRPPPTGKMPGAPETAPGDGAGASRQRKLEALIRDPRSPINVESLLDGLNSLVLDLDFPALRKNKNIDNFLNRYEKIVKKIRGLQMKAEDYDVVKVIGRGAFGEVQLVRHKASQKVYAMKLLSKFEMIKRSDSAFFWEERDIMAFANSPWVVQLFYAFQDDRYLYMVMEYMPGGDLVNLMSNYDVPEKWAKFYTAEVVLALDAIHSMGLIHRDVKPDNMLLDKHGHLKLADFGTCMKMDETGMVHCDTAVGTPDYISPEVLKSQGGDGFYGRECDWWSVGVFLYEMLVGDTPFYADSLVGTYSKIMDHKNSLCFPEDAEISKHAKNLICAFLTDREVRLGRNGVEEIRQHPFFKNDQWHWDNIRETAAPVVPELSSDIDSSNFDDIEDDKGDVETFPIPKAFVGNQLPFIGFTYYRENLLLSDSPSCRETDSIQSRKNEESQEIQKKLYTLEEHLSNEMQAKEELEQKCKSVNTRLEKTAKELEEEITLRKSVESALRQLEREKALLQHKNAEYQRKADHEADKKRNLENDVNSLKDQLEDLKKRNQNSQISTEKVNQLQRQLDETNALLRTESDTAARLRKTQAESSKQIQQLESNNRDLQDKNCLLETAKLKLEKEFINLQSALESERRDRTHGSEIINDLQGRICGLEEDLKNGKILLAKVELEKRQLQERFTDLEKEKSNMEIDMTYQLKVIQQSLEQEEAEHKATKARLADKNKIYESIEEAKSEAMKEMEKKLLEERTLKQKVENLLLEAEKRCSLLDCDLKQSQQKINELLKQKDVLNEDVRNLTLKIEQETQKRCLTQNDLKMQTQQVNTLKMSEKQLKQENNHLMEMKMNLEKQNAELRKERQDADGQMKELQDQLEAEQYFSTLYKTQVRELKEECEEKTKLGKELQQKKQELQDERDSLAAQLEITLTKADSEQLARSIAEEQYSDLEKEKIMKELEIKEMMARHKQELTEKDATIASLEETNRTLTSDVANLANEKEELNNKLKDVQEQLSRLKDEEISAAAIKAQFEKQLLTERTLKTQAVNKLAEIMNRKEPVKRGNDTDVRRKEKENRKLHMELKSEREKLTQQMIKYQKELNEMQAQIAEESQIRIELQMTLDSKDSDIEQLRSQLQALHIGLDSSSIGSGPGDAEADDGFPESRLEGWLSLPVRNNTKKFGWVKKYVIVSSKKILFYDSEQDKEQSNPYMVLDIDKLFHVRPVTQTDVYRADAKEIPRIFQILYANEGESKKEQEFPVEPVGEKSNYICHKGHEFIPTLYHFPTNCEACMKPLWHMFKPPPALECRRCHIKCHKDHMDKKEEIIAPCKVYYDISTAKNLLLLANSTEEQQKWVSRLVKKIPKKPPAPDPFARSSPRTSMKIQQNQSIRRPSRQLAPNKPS

For CCOc1ccc(NC(=O)c2cccc([C@@H](CO)NC(=O)c3ccc(-c4ccncc4)cc3)c2)cn1 [US11555039, Compound ID 93], the IC50 was 0.51 nM.
